What was measured:
[1] = Antagonist activity at LPA5 receptor in human isolated platelets assessed as inhibition of hexadecyl-LPA-induced platelet aggregation after 3 mins
[2] = Antagonist activity at LPA2 receptor in human isolated platelets assessed as inhibition of TRAP-induced platelet aggregation after 3 mins

Structure (SMILES)	IC50 [1]	IC50 [2]
Cc1csc2c(N[C@@H](C)CN3CCN(S(=O)(=O)c4ccc(Cl)c(Cl)c4)CC3)ncnc12	> 30 µM	
COc1cccc(-n2nc(C(=O)O)cc2-c2ccc(C3CCCCC3)c(Cl)c2)c1	2.2 µM	> 10 µM
Cc1noc(-c2ccc(CSCCC(=O)O)cc2)c1NC(=O)OC(C)c1ccccc1Cl (centres undefined) [3-(4-(4-((1-(2-chlorophenyl)ethoxy)carbonylamino)-3-methylisoxazol-5-yl)benzylthio)propanoic acid]	> 30 µM	

Source: BindingDB's records for doi:10.1016/j.bmcl.2012.06.057 (Sanofi-Aventis Deutschland, 2012)
